In patent US7470821B2, “Aldolase-inhibiting aromatic compounds” (Valorisation-Recherche, Limited Partnership, priority 2003, dated 2008):
Substitutions are numbered along the chain they refer to.

Columns and labels:
K146M mutant RM aldolase = molecular target: T1, K146M mutant RM aldolase (Oryctolagus cuniculus, UniProt P00883, K147M); test: UV-visible differential spectroscopy (method A) with mutated aldolase K146M; type: binding, rabbit; conditions: FHN-P 300 μM; for kapp: 431 nm
T1 construct: made in house
T1 sequence (P00883 1-364 K147M): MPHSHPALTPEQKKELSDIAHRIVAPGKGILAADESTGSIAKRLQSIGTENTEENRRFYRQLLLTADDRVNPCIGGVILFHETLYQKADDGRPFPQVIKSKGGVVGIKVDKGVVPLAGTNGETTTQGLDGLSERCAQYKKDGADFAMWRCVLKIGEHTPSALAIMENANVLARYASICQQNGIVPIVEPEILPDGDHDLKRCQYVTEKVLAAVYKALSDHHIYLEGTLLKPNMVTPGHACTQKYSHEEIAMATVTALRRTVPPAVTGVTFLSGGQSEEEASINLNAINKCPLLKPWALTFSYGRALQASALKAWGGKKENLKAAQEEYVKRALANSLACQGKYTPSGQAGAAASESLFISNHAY
Protocol: (§1) For method A, absorption spectra are recorded as a function of time, between 250 and 500 nm, or at wavelengths corresponding to maximum or minimum absorption. Measurements are begun by adding FHN-P at varying final concentrations (0.1-1 mM) in the TEA buffer containing a fixed concentration of aldolase (10 μM of subunits). Measured absorption spectra for the enzyme complex are corrected using the absorbance of the buffer, the FHN—P, and the enzyme (measured separately). The differential absorption spectra thus obtained are used to calculate the value of the constants that define the formation of the aldolase-inhibitor complex.
(§2) Every UV-visible differential test spectroscopy test using mutated aldolases (10 μM of subunits) is carried out using method A. • Monitored by Electrospray Ionization Mass Spectrometry (ESI-MS).
(§3) Residues of lysine 106, 146 and 229 residues are located at the active aldolase sites and thus are candidates for causing inactivation by forming a Schiff base with the FHN-P. In order to identify which lysine is responsible for the differential absorbances in the presence of FHN-P, sporadic mutations of these lysine residues were created and named: K107M (Research Collaboratory for Structural Bioinformatics Protein Databank), K146M (Blonski C. et al., 1997, Biochem. J. 323:71-77) and […] (Research Collaboratory for Structural Bioinformatics Protein Databank). […] UV-visible differential spectroscopy (method A) was used to examine formation of the enzyme complex for each sporadic mutation in the presence of a fixed concentration of FHN-P (300 μM).

K107M mutant RM aldolase = molecular target: T2, K107M mutant RM aldolase (Oryctolagus cuniculus, UniProt P00883, K108M); test: UV-visible differential spectroscopy (method A) with mutated aldolase K107M; type: binding, rabbit; conditions: FHN-P 300 μM
T2 construct: made in house
T2 sequence (P00883 1-364 K108M): T1 sequence (P00883 1-364 K147M) with K108M, M147K
Protocol: as §1, §2, §3

O=Cc1c(O)ccc2cc(OP(=O)(O)O)ccc12 [FHN-P, 5-formyl-6-hydroxy-2-naphthylphosphate]
Residual specific activity (K146M mutant RM aldolase): ud
ΔA relative to 432 nm (K146M mutant RM aldolase; first phase): 98%
kapp (K146M mutant RM aldolase; first phase (associated with inhibition)): 0.005 ± 0.0005 min⁻¹
ΔA relative to 432 nm (K146M mutant RM aldolase; second (slow) phase): 25%
kapp (K146M mutant RM aldolase; second (slow) phase): 0.0015 ± 0.0003 min⁻¹
Residual specific activity (K107M mutant RM aldolase): 95%
ΔA relative to 432 nm (K107M mutant RM aldolase; slow phase only): 30%
kapp (K107M mutant RM aldolase; slow phase only, 431 nm): 0.0015 ± 0.0005 min⁻¹
